Measurements published in ChEMBL document CHEMBL4622948, “SAR of non-hydrolysable analogs of pyridoxal 5'-phosphate against low molecular weight protein tyrosine phosphatase isoforms” (Bioorg Med Chem Lett, 2020).
pKi: −log10 of the molar value.

Key:
[1] = biological target: T1, Low molecular weight phosphotyrosine protein phosphatase (Homo sapiens) (UniProt P24666); assay: Inhibition of LMW-PTP isoform B (unknown origin)
T1 sequence (whole entry): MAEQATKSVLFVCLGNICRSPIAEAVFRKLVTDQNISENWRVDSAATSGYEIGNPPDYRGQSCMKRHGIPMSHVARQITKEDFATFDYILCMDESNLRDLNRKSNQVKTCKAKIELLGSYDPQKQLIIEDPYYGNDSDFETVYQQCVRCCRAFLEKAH

[2] = organism: Homo sapiens; assay: Selectivity index, ratio of Ki for LMW-PTP isoform B (unknown origin) to Ki for LMW-PTP isoform A (unknown origin)
[3] = biological target: T1, Low molecular weight phosphotyrosine protein phosphatase (Homo sapiens); assay: Inhibition of LMW-PTP isoform A (unknown origin)
[4] = Competitive inhibition of bovine LMW-PTP isoform B using para-Nitrophenyl phosphate as substrate at pH 5 by Lineweaver-Burk double reciprocal plot analysis; parameters: species or system Bos taurus
[5] = biological target: T2, Low molecular weight phosphotyrosine protein phosphatase (Homo sapiens, UniProt P24666); assay: Competitive inhibition of LMW-PTP isoform A (unknown origin)
T2 sequence (P24666 whole entry): T1 sequence (whole entry)

| SMILES | Kis [1] | Ratio [2] | Kis [3] | pKi [4] | pKi [5] |
| --- | --- | --- | --- | --- | --- |
| O=P(O)(O)/C=C/c1cccc(O)c1 | 580 µM | 37 | 15.7 µM |  |  |
| O=P(O)(O)CCc1ccccc1 | > 10000 µM | > 18 | 552 µM |  |  |
| Cc1ccc(/C=C/P(=O)(O)O)cc1O | 42.4 µM | 0.8 | 50.3 µM |  |  |
| O=P(O)(O)/C=C/c1ccccc1 | > 10000 µM | > 21 | 482 µM |  |  |
| Cc1ccc(/C=C/P(=O)(O)O)cn1 | 842 µM | 4 | 213 µM |  |  |
| Cc1ccc(/C=C/P(=O)(O)O)cc1 | 323 µM | 4.8 | 66.8 µM |  |  |
| Cc1ccc(CCP(=O)(O)O)cn1 | 15.6 µM | 8.5 | 1.84 µM |  |  |
| Cc1ncc(CCP(=O)(O)O)c(C=O)c1O | 218 µM | 2.9 | 74.9 µM |  |  |
| Cc1ncc(/C=C/P(=O)(O)O)c(C=O)c1O | 113 µM | 22 | 5.14 µM |  |  |
| O=P(O)(O)/C=C/c1cccnc1 | 1070 µM | 4.4 | 243 µM |  |  |
| Cc1ncc(/C=C/P(=O)(O)O)c(CO)c1O | 6060 µM | 372 | 16.3 µM |  |  |
| Cc1ccc(CCP(=O)(O)O)cc1O | 39.9 µM | 11 | 3.59 µM |  |  |
| O=P(O)(O)CCc1cccnc1 | 1080 µM | 10.4 | 103 µM |  |  |
| Cc1ncc(CCP(=O)(O)O)c(CO)c1O | 552 µM | 53 | 10.4 µM |  |  |
| Cc1ncc(COP(=O)(O)O)c(C=O)c1O [PYRIDOXAL PHOSPHATE ANHYDROUS] |  |  |  | 5.12 | 4.89 |
| O=P(O)(O)C(F)(F)Cc1ccccc1 | > 10000 µM | > 28 | 359 µM |  |  |
| Cc1ccc(CCP(=O)(O)O)cc1 | 323 µM | 2.5 | 130 µM |  |  |
| O=P(O)(O)CCc1cccc(O)c1 | 52.2 µM | 4 | 13 µM |  |  |
